Laboratory results as given in US4260629A, “Treating pain with acetaminophen and 1,4-dimethyl-5-p-chlorobenzoyl-pyrrole-2-acetic acid” (E. I. Du Pont de Nemours and Company, priority 1979, dated 1981).

Legend:
[1] = system: phenyl-p-benzoquinone induced writhing; test: mouse antiphenylquinone writhing test (prevention of phenyl-p-benzoquinone induced writhing; oral analgesic activity); type: in vivo, mouse (male CF1)
Protocol: Male CF1 mice obtained from Charles River Breeding Laboratories, fasted for 16-22 hours, and weighing 18-22 g at the time of testing are used throughout. All mice are dosed orally with acetaminophen and/or zomepirac (calculated as the sodium salt) dissolved completely in distilled water containing as vehicle 2% by volume of Tween 80®, a pharmacological dispersant manufactured by Fisher Scientific Company and containing 100% polysorbate 80. A dosing volume of 20 ml/kg is used. All doses are coded and the test is performed under a code not known to the observer.
A standard procedure for detecting and comparing the analgesic activity of different classes of analgesia drugs for which there is a good correlation with human efficacy is the prevention of phenyl-p-benzoquinone induced writhing in mice (H. Blumberg et al.; Proc. Soc. Exp. Biol. Med. 118, 763-766, 1965).
Mice, intubated with various doses of sodium zomepirac, acetaminophen, combined doses of sodium zomepirac and acetaminophen, or vehicle, are injected intraperitoneally with a challenge dose of phenyl-p-benzoquinone.The phenyl-p-benzoquinone is prepared as a 0.1 mg/ml solution in 5% by volume of ethanol in water; the writhing dose is 1.25 mg/kg injected at the rate of 0.25 ml/20 g. For scoring purposes a "writhe" is indicated by whole body stretching or contraction of the abdomen: mice are observed 10 minutes for the presence or absence of writhing beginning 5 minutes after receiving the phenyl-p-benzoquinone dose. Each mouse is used only once, then discarded.
In order to study the interaction between zomepirac and acetaminophen, precise dosage ratios of sodium zomepirac and acetaminophen are selected. Four to five coded doses of each selected combination are studied for analgesic effectiveness at 10 minutes using an experimental design which permits complete randomization of the separate dosage forms tested. Altogether 25 separate dosage forms are used and each form is represented in each experimental session. The experiments are continued by running experimental sessions with an equal number of mice being tested for each dosage group until the total number, N, of mice tested per group is 20.
In the drawing, the diagonal line joining the ED50 values of the two drugs given separately represents simple additivity of drug effects. The dashed lines on each side of the diagonal line give the 95% confidence limits for this line of additivity. […] The 3 diagonal lines radiating from the origin represent the dose ratios of sodium zomepirac to acetaminophen used in mice receiving the combined drug dosages.

[2] = system: phenyl-p-benzoquinone induced writhing; test: as above; type: in vivo, mouse (male CF1); conditions: 10 min, preliminary experiment, 95% confidence limits 0.80-1.69 (sodium zomepirac), 166-281 (acetaminophen)

% MICE BLOCKED ([1]; sodium zomepirac 0 + acetaminophen 54 mg/kg) [%]	% MICE BLOCKED ([1]; sodium zomepirac 0 + acetaminophen 108 mg/kg) [%]	% MICE BLOCKED ([1]; sodium zomepirac 0 + acetaminophen 216 mg/kg) [%]	% MICE BLOCKED ([1]; sodium zomepirac 0 + acetaminophen 432 mg/kg) [%]	% MICE BLOCKED ([1]; sodium zomepirac 0.29 + acetaminophen 0 mg/kg) [%]	% MICE BLOCKED ([1]; sodium zomepirac 0.58 + acetaminophen 0 mg/kg) [%]	% MICE BLOCKED ([1]; sodium zomepirac 1.16 + acetaminophen 0 mg/kg) [%]	% MICE BLOCKED ([1]; sodium zomepirac 2.32 + acetaminophen 0 mg/kg) [%]	% MICE BLOCKED ([1]; sodium zomepirac 4.64 + acetaminophen 0 mg/kg) [%]	SMILES	ED50 at 10 Min. (95% Confidence limits), Acetaminophen (alone or as component of the combination) ([1]; 10 min, N = 20 mice/dose, 95% limits on following lines: alone 162-309, 1:62.1 22.6-40.6, 1:186 37.7-68.5, 1:559 62.6-111) [mg/kg]	ED50 [2] [mg/kg]	ED50 at 10 Min. (95% Confidence limits), Sodium Zomepirac (alone or as component of the combination) ([1]; 10 min, N = 20 mice/dose, 95% limits on following lines: alone 1.09-2.12, 1:62.1 0.367-0.649, 1:186 0.204-0.365, 1:559 0.114-0.195) [mg/kg]
10	30	45	75						CC(=O)Nc1ccc(O)cc1 [Acetaminophen, N-(4-hydroxyphenyl)acetamide]	224	216	
				5	20	35	60	95	Cc1cc(CC(=O)O)n(C)c1C(=O)c1ccc(Cl)cc1 [Sodium Zomepirac]		1.16	1.52
